Measured values: patent US9376380B2 (University of Pittsburgh—Of the Commonwealth System of …, priority 2011, dated 2016)
Entries after “also recorded” stand apart in the source; their conditions may differ.

Tests used:
Human MM cell U266 = test: [3H]-thymidine uptake cell proliferation assay, U266; assay type: cell-based; conditions: for inhibition of DNA synthesis in MM cells: U266, 0-10 μmol/L, 48 h
Method: (§1) FIG. 2. Inhibitory effects of CB2 ligands on human MM cell growth. Human MM cell U266 (3×10^4 cells per well in 96-well plate) was exposed to the known CB2 ligands (A) or PAM (B) at indicated concentrations (0-10 μmol/L) for 48 h. Cell proliferation was measured by [^3H]-thymidine uptake assay as described in Materials and Methods. (C) U266 cells (3×10^4 per well in 96-well plate) were treated with PAM at indicated doses for 48 h. Cell viability and the viable cell number per well were determined using trypan blue exclusion assay. (D) Human chemoresistant myeloma cell lines MM.1R (dexamethasone), RPMI-8226/LR5 (melphalan) and their respective parent cells MM.1S and RPMI-8226 were exposed to PAM for 48 h. Cell proliferation was measured by ^3H-thymidine incorporation. The data presented are the mean±SD of at least 3 independent measurements. (E) [S^35]-GTPγS binding assay of different ligands on human CB2 receptor expressed in CHO cells.
(§2) A tritiated thymidine incorporation assay was carried out to investigate the effects of CB2 ligands on cell proliferation. U266, RPMI-8226 (3×10^4 cells/well), MM.1 S cells (6×10^4 cells/well), and their resistant sublines were cultured in 96-well culture plates with or without drugs for 48 hours. DNA synthesis was measured by ^3H-thymidine uptake as described previously.

MM cells = test: Apoptosis and cell cycle protein studies in MM cells; assay type: cell-based
Source text: Since drug resistance is a prevalent problem in multiple myeloma clinical treatment, the ability of compounds according to this invention to overcome chemoresistance of MM cells against conventional drugs such as dexamethasone or melphalan provides an unexpected advantageous benefit in MM treatment. The present inventors have hypothesized that the cell inhibitory activity of the inventive compounds is due to their ability to activate apoptotic processes.
Compound (1) also altered certain proteins that are known to play a role in the cell-growth cycle. […] To further explore this observation, the present inventors investigated the effect of compound (1) on several proteins involved in cell G2-M phase transition.

CB2 receptor [1] = biological target: T1, CB2 receptor (Homo sapiens, UniProt P34972); test: Cell-based cAMP assay
T1 sequence (P34972 whole entry): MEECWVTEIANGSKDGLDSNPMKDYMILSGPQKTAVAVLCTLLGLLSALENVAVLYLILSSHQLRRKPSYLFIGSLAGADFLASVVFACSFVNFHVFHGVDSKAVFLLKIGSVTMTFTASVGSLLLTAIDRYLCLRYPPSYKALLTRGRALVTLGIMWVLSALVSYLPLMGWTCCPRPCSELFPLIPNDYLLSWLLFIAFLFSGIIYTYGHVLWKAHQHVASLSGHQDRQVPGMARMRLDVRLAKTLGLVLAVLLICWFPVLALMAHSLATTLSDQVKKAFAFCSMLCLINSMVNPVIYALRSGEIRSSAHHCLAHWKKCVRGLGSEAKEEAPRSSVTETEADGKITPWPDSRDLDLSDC
Source text: Cell-based cAMP assays were used to identify the mode by which the CB2 ligands according to the present invention modulate CB2 receptor.

[2] = system: MM.1S and RPMI-8226 cells; test: [3H]-thymidine incorporation, parent myeloma cell lines; assay type: cell-based, human; conditions: MM.1S and RPMI-8226, 48 h
Method: as §1, §2

[3] = biological target: T2, human CB2 receptor expressed in CHO cells (Homo sapiens, UniProt P34972); test: [35S]-GTPγS binding assay; assay type: biochemical
T2 construct: expressed in transfected cells; host or cells: CHO cells
T2 sequence (P34972 whole entry): as above

[4] = system: bone marrow mononuclear cells (MNC); test: RANKL-induced osteoclast formation in bone marrow mononuclear cells; assay type: cell-based, murine and human
Method: FIG. 4. Effects of XIE35 and compound (1) on RANKL-induced osteoclast formation in bone marrow mononuclear cells (MNC). […] Half-medium change was performed every other day using drug-containing media where appropriate. After 5 days, the cells were fixed and stained for TRAP activity using a TRAP-staining kit (Sigma-Aldrich) according to the manufacturer's instructions. Lower panel: Human bone marrow MNCs (1×10^5 per well) were treated with rhRANKL (50 ng/ml) plus rhM-CSF (10 ng/ml), and the respective compounds as described above. After three weeks, differentiation into OCLs was assessed by staining with monoclonal antibody 23c6 using a Vectastatin-ABC-AP kit (Vector Laboratories). The antibody 23c6, which recognizes CD51/61 dimer constituting the OCL vitronectin receptor, was kindly provided by the Bone Biology Center of our university. Images were obtained with an Olympus IX70 microscope. Arrows designate the typical multinucleated osteoclasts with 3 or more nuclei.

[5] = system: MM.1R (dexamethasone) and RPMI-8226/LR5 (melphalan) cells; test: [3H]-thymidine incorporation, chemoresistant myeloma cell lines; assay type: cell-based; conditions: Homo sapiens; MM.1R and RPMI-8226/LR5, 48 h; read-out: growth inhibition of chemoresistant myeloma cell lines, IC50
Method: as §1, §2

U266 cells = test: Trypan blue viability of U266 cells with CB2 agonist; assay type: cell-based, human; conditions: Win55212-2 or CP55940, 48 h
Method: (§3) FIG. 3. Inhibitory activity of PAM (compound (1)) in CB2 knockdown or agonist treated cells. (A) CB2 gene silencing in MM1.S cells confirmed by Western blot with CB2antibody. (B) Human MM1.S cells expressing shRNA vector or expressing the specific shRNA against human CB2 were treated with vehicle control (white column), or the indicated concentrations of PAM (black column) for 48 h. Cell proliferation was measured by [^3H]TdR uptake. […] The cell viability and the viable cells/well were determined using trypan blue exclusion assay.

CB2 receptor [6] = biological target: T1, CB2 receptor; test: [3H]CP-55,940 radioligand competition binding, CB2; set-up: host or cells: cell membrane preparations
[7] = system: MM1.S cells expressing shRNA against human CB2; test: Proliferation in CB2 knockdown MM1.S cells; assay type: cell-based; conditions: 48 h, [3H]TdR uptake
Method: as §3

Compound | inhibition of DNA synthesis in MM cells (Human MM cell U266) | ER stress-induced transcription factor CHOP (MM cells) | H2A.X phosphorylation (MM cells) | MAPK family members in treated MM cells (MM cells) | effect on Cdc25C activation of Cdc2 (MM cells) | number of cells in the G0-G1 phase (MM cells; various concentrations) | number of cells in the S-phase and G2-M phase (MM cells; various concentrations) | IC50 (Human MM cell U266; Homo sapiens, U-266, U266, 48 h, [3H]-thymidine uptake, read-out: inhibition of DNA synthesis in MM cells, IC50) [nM] | mode of CB2 modulation (c-AMP studies) (CB2 receptor [1]) | growth inhibitory effect on parent cells [2] | CB2 receptor modulatory activity ([35S]-GTPγS) [3] | RANKL/M-CSF induced osteoclast formation ([4]; 1 μM, murine 5 days, human three weeks) | toxicity ([4]; concentrations as high as 1 μM) | IC50 [5] [nM] | inhibition of MM cell growth after pretreatment with CB2 agonist (U266 cells) | SI: selectivity index for CB2 (CB2 receptor [6]; Ki(CB1)/Ki(CB2) ratio) | Ki (CB2 receptor [6]; [3H]CP-55,940 displacement, read-out: Ki (CB2)) [nM] | anti-MM activity after stable knockout of CB2 [7]
COc1ccc(C(=O)c2c(C)n(CCN3CCOCC3)c3cc(I)ccc23)cc1 [AM630] | dose dependent inhibition | – | – | – | – | – | – | – | – | – | – | – | – | – | – | – | – | –
CN(C)c1ccc(C(NC(=O)Cc2ccccc2)NC(=O)Cc2ccccc2)cc1 [Compound 1, N,N′-((4-(dimethylamino)phenyl)methylene)bis(2-phenylacetamide)] | – | transiently upregulated | did not have any effect | not up regulated | prevents the tyrosine phosphatase Cdc25C from activating cyclin-B bound Cdc2 | does not change | decreased in a dose dependent manner | 1250 | inverse agonist | no growth inhibitory effect | inverse CB2 receptor agonist | anti-osteoclast activity; also recorded: completely blocking osteoclast formation | non-toxic | 600 to 1200 | attenuated | >26 | 777 | largely abrogated
CCCCCCC(C)(C)c1cc(OC)c([C@@H]2C=C(CO)[C@@H]3C[C@H]2C3(C)C)c(OC)c1 [Hu308] | no effect | – | – | – | – | – | – | – | – | – | – | – | – | – | – | – | – | –
